Measurements: patent publication US20240343754A1, “7-SUBSTITUTED 7-DEAZAADENINE-CONTAINING 2',3'-CYCLIC DINUCLEOTIDES” (USTAV ORGANICKE CHEMIE A BIOCHEMIE AV CR, V. V. I., priority 2021, published 2024)
Where two headings read alike, the source gives them in different places.

Tests used:
wt hSTING = wt hSTING (Homo sapiens, UniProt Q86WV6); assay: Standard 293T reporter cell-based assay (IRF-3 dependent firefly luciferase reporter); conditions: read-out: Standard assay EC50; 293T reporter cells expressing wt hSTING; 7 h incubation; mean of three independent experiments in triplicates, SD <50%
Protocol: Briefly, the day before testing cells were seeded onto 96-well white plates at density 250,000 cells per cm^2 in DMEM High glucose medium supplemented with 10% (v/v) heat inactivated fetal bovine albumin (FBS). The next day medium was removed, and cell were incubated for 7 h (37° C., 5% CO2) with serial dilution of compounds in medium. After incubation, Bright-Glo Luciferase Assay System reagent was added to cells and luminescence readout was performed on SPARK instrument (Tecan, Austria). EC50 values were determined using in software Prism (GraphPad, USA).

[1] = tested on: Peripheral blood mononuclear cells (PBMC); assay: PBMC assay: induction of cytokines INFα and INFγ; assay type: cell-based; conditions: Homo sapiens, PBMCs, 16 h incubation, mean from three different PBMC donors
[2] = Cytotoxic effect on PBMCs (CellTiter-Glo Luminescent Cell Viability Assay); assay type: cell-based; conditions: human, 16 h incubation, mean from three different PBMC donors
Protocol: Briefly, buffy coats were obtained from the Institute of Hematology and Blood Transfusion (Prague, Czech Republic). Informed written consent was signed by each volunteer. Isolation of PBMCs was performed on Ficoll density gradient centrifugation (Ficoll Paque Plus, GE Healthcare, USA) in SepMate tubes (SepMate PBMC Isolation Tubes, Stemcell Technologies, Canada). Obtained PBMCs were washed using PBS with 2 mM EDTA, and then seeded onto 96-well U-shape plates at density 500,000 cells per well in RPMI 1640 media with 10% (v/v) heat inactivated FBS. Serially diluted CDNs were added to cells and cells were incubated for 16 h (37° C., 5% CO2). After incubation, medium was collected to determine levels of INFα and INFγ using ProcartaPlex Assays and MAGPIX System (Merck, Germany) according to the manufacturer's instructions. Cytotoxic effect of CDNs on PBMCs was determined using CellTiter-Glo® Luminescent Cell Viability Assay (Promega Corporation, USA) according to manufacturer's instruction.

[3] = read-out: PBMC assay EC50 INF α
[4] = read-out: PBMC assay EC50 INF γ

Sequence of wt hSTING (Q86WV6 whole entry H232R): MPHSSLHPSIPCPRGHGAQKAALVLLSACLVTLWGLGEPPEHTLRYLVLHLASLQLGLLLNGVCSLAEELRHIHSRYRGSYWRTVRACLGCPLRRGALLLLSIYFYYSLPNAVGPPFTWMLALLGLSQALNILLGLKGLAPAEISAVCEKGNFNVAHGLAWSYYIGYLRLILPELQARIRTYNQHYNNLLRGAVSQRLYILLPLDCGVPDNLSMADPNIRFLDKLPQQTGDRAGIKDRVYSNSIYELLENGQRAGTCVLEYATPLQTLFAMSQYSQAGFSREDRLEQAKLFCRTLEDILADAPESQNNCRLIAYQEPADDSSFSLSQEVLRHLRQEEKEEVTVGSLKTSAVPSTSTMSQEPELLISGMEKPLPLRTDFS

Row | SMILES | EC50 (wt hSTING) [µM] | EC50 [1, 3] [µM] | EC50 [1, 4] [µM] | CC50 at 16 h [2] [µM]
1 | Nc1nc2c(ncn2[C@@H]2O[C@@H]3COP(=O)(O)O[C@H]4[C@@H](O)[C@H](n5cc(-c6ccc(COc7cccc8ccccc78)cc6)c6c(N)ncnc65)O[C@@H]4COP(=O)(O)O[C@@H]2[C@@H]3O)c(=O)[nH]1 [Compound 1h, 2-amino-9-((5R,7R,8R,12aR,14R,15R,15aS,16R)-14-(4-amino-5-(4-((naphthalen-1-yloxy)methyl)phenyl)-7H-pyrrolo[2,3-d]pyrimidin-7-yl)-2,10,15,16-tetrahydroxy-2,10-dioxidooctahydro-12H-5,8-methanofuro[3,2-l][1,3,6,9,11]pentaoxa[2,10]diphosphacyclotetradecin-7-yl)-1,9-dihydro-6H-purin-6-one] | 2.58 | 1.97 | 1.08 | > 200
2 | Nc1nc2c(ncn2[C@@H]2O[C@@H]3COP(=O)(O)O[C@H]4[C@@H](O)[C@H](n5cc(-c6cc7ccccc7o6)c6c(N)ncnc65)O[C@@H]4COP(=O)(O)O[C@@H]2[C@@H]3O)c(=O)[nH]1 [Compound 1k, 2-amino-9-((5R,7R,8R,12aR,14R,15R,15aS,16R)-14-(4-amino-5-(benzo[b]furan-2-yl)-7H-pyrrolo[2,3-d]pyrimidin-7-yl)-2,10,15,16-tetrahydroxy-2,10-dioxidooctahydro-12H-5,8-methanofuro[3,2-l][1,3,6,9,11]pentaoxa[2,10]diphosphacyclotetradecin-7-yl)-1,9-dihydro-6H-purin-6-one] | 10.9 | 13.8 | 8.48 | > 200
3 | Nc1nc2c(ncn2[C@@H]2O[C@@H]3COP(=O)(O)O[C@H]4[C@@H](O)[C@H](n5cc(-c6cc7ccccc7s6)c6c(N)ncnc65)O[C@@H]4COP(=O)(O)O[C@@H]2[C@@H]3O)c(=O)[nH]1 [Compound 1l, 2-amino-9-((5R,7R,8R,12aR,14R,15R,15aS,16R)-14-(4-amino-5-(benzo[b]thiophen-2-yl)-7H-pyrrolo[2,3-d]pyrimidin-7-yl)-2,10,15,16-tetrahydroxy-2,10-dioxidooctahydro-12H-5,8-methanofuro[3,2-l][1,3,6,9,11]pentaoxa[2,10]diphosphacyclotetradecin-7-yl)-1,9-dihydro-6H-purin-6-one] | 8.69 | 47.6 | 47.5 | > 200
